Where two headings read alike, the source gives them in different places.
Assay: Peptide dose escalation study, BHK-GIPR tumor mice
Assay type: in vivo, BALB/c nude mice
Settings: female, mouse, iv, total radioactivity, BHK-GIPR tumor BALB/c nude mice, i.v., 4 h p.i., mean n=5
Experimental: All animal experiments were approved by the Animal Welfare Body of the Radboud University, Nijmegen, The Netherlands and carried out in accordance with their guidelines. Six to eight weeks old, female BALB/c nude mice and C3H mice were purchased from Janvier labs (Le Genest Saint Isle, France). For all in vivo experiments, 6-8 weeks old female BALB/c nude mice were injected subcutaneously in the right shoulder with 0.2 ml of a 2.5 × 10^7 cells/ml suspension of BHK-GIPR transfected cells or with 0.2 ml of a 2.5 × 10^7 cells/ml suspension of NES2Y cells mixed with matrigel (2:1) in the right shoulder. When the tumor reached a diameter of 2-5 mm, mice were randomly divided in groups.
To determine the optimal peptide dose of [Lys^37(DTPA)]N-acetyl-GIP1-42, BHK-GIPR transfected tumor bearing BALB/c nude mice (n = 5/group) were injected intravenously with approximately 3 MBq [Lys^37(^111In-DTPA)]N-acetyl-GIP1-42 (0.05 µg) in the tail vein and were co-injected with escalating amounts of unlabeled [Lys^37(DTPA)]N-acetyl-GIP1-42 (0.05 µg – 1.95 µg), resulting in final peptide doses ranging from 0.1 to 2 µg/mouse (0.02 – 0.4 nmol/mouse) (5 groups, n = 5/group). Four hours after injection, mice were euthanized by CO2/O2 suffocation and tumors and other relevant tissues (heart, muscle, lung, spleen, pancreas, kidney, liver, stomach and duodenum) were dissected, weighed and measured in a well type gamma counter. The percentage injected dose per gram of tissue (%ID/g) was determined for each tissue.

For `CC[C@H](C)[C@H](NC(=O)[C@H](CO)NC(=O)[C@H](Cc1ccc(O)cc1)NC(=O)[C@H](CC(=O)O)NC(=O)[C@H](CO)NC(=O)[C@@H](NC(=O)[C@H](Cc1ccccc1)NC(=O)[C@@H](NC(=O)CNC(=O)[C@H](CCC(=O)O)NC(=O)[C@H](C)NC(=O)[C@H](Cc1ccc(O)cc1)NC(C)=O)[C@@H](C)O)[C@@H](C)CC)C(=O)N[C@@H](C)C(=O)N[C@@H](CCSC)C(=O)N[C@@H](CC(=O)O)C(=O)N[C@@H](CCCCN)C(=O)N[C@H](C(=O)N[C@@H](Cc1c[nH]cn1)C(=O)N[C@@H](CCC(N)=O)C(=O)N[C@@H](CCC(N)=O)C(=O)N[C@@H](CC(=O)O)C(=O)N[C@@H](Cc1ccccc1)C(=O)N[C@H](C(=O)N[C@@H](CC(N)=O)C(=O)N[C@@H](Cc1c[nH]c2ccccc12)C(=O)N[C@@H](CC(C)C)C(=O)N[C@@H](CC(C)C)C(=O)N[C@@H](C)C(=O)N[C@@H](CCC(N)=O)C(=O)N[C@@H](CCCCN)C(=O)NCC(=O)N[C@@H](CCCCN)C(=O)N[C@@H](CCCCN)C(=O)N[C@@H](CC(N)=O)C(=O)N[C@@H](CC(=O)O)C(=O)N[C@@H](Cc1c[nH]c2ccccc12)C(=O)N[C@@H](CCCCNC(=O)CN(CCN(CCN(CC(=O)O)CC(=O)O)CC(=O)O)CC(=O)O)C(=O)N[C@@H](Cc1c[nH]cn1)C(=O)N[C@@H](CC(N)=O)C(=O)N[C@H](C(=O)N[C@H](C(=O)N[C@@H](CCC(N)=O)C(=O)O)[C@@H](C)O)[C@@H](C)CC)C(C)C)[C@@H](C)CC` [[Lys^37(^111In-DTPA)]N-acetyl-GIP1-42, metal not drawn], the tissue uptake at 4 h (pancreas, 0.1 ug/mouse, peptide dose 0.1 µg, read-out: Pancreas uptake) was 0.169 %ID/g, the tissue uptake at 4 h (pancreas, 0.2 ug/mouse, peptide dose 0.2 µg, read-out: Pancreas uptake) was 0.234 %ID/g and the tissue uptake at 4 h (pancreas, 0.5 ug/mouse, peptide dose 0.5 µg, read-out: Pancreas uptake) was 0.199 %ID/g. It also gave a tissue uptake at 4 h (pancreas, 1 ug/mouse, peptide dose 1 µg, read-out: Pancreas uptake) of 0.257 %ID/g, a tissue uptake at 4 h (pancreas, 2 ug/mouse, peptide dose 2 µg, read-out: Pancreas uptake) of 0.213 %ID/g and a tissue uptake at 4 h (spleen, 0.1 ug, peptide dose 0.1 µg, read-out: Spleen uptake) of 0.648 %ID/g. For the same compound, the tissue uptake at 4 h (spleen, 0.2 ug, peptide dose 0.2 µg, read-out: Spleen uptake) was 0.692 %ID/g, the tissue uptake at 4 h (spleen, 0.5 ug, peptide dose 0.5 µg, read-out: Spleen uptake) was 0.594 %ID/g and the tissue uptake at 4 h (spleen, 1 ug, peptide dose 1 µg, read-out: Spleen uptake) was 0.781 %ID/g. For the same compound, the tissue uptake at 4 h (spleen, 2 ug, peptide dose 2 µg, read-out: Spleen uptake) was 0.713 %ID/g, the tissue uptake at 4 h (stomach, 0.1 ug/mouse, peptide dose 0.1 µg, read-out: Stomach uptake) was 0.41 %ID/g and the tissue uptake at 4 h (stomach, 0.2 ug/mouse, peptide dose 0.2 µg, read-out: Stomach uptake) was 0.418 %ID/g. It also gave a tissue uptake at 4 h (stomach, 0.5 ug/mouse, peptide dose 0.5 µg, read-out: Stomach uptake) of 0.411 %ID/g, a tissue uptake at 4 h (stomach, 1 ug/mouse, peptide dose 1 µg, read-out: Stomach uptake) of 0.527 %ID/g and a tissue uptake at 4 h (stomach, 2 ug/mouse, peptide dose 2 µg, read-out: Stomach uptake) of 0.437 %ID/g. The tissue to tissue ratio at 4 h (tumor/blood, 2 ug/mouse, peptide dose 2 µg, read-out: Tumor/Blood) was 38, the tissue to tissue ratio at 4 h (tumor/heart, 0.1 ug/mouse, peptide dose 0.1 µg, read-out: Tumor/Heart) was 35.6 and the tissue to tissue ratio at 4 h (tumor/heart, 0.2 ug/mouse, peptide dose 0.2 µg, read-out: Tumor/Heart) was 33.1. For the same compound, the tissue to tissue ratio at 4 h (tumor/heart, 0.5 ug/mouse, peptide dose 0.5 µg, read-out: Tumor/Heart) was 14.6, the tissue to tissue ratio at 4 h (tumor/heart, 1 ug/mouse, peptide dose 1 µg, read-out: Tumor/Heart) was 16.4 and the tissue to tissue ratio at 4 h (tumor/heart, 2 ug/mouse, peptide dose 2 µg, read-out: Tumor/Heart) was 11.2. It also gave a tissue to tissue ratio at 4 h (tumor/kidney, 0.1 ug/mouse, peptide dose 0.1 µg, read-out: Tumor/Kidney) of 0.02, a tissue to tissue ratio at 4 h (tumor/kidney, 0.2 ug/mouse, peptide dose 0.2 µg, read-out: Tumor/Kidney) of 0.019 and a tissue to tissue ratio at 4 h (tumor/kidney, 0.5 ug/mouse, peptide dose 0.5 µg, read-out: Tumor/Kidney) of 0.011. The tissue to tissue ratio at 4 h (tumor/kidney, 1 ug/mouse, peptide dose 1 µg, read-out: Tumor/Kidney) was 0.01, the tissue to tissue ratio at 4 h (tumor/kidney, 2 ug/mouse, peptide dose 2 µg, read-out: Tumor/Kidney) was 0.008 and the tissue to tissue ratio at 4 h (tumor/lung, 0.1 ug/mouse, peptide dose 0.1 µg, read-out: Tumor/Lung) was 13. For the same compound, the tissue to tissue ratio at 4 h (tumor/lung, 0.2 ug/mouse, peptide dose 0.2 µg, read-out: Tumor/Lung) was 10, the tissue to tissue ratio at 4 h (tumor/lung, 0.5 ug/mouse, peptide dose 0.5 µg, read-out: Tumor/Lung) was 4.18 and the tissue to tissue ratio at 4 h (tumor/lung, 1 ug/mouse, peptide dose 1 µg, read-out: Tumor/Lung) was 4.81. It also gave a tissue to tissue ratio at 4 h (tumor/lung, 2 ug/mouse, peptide dose 2 µg, read-out: Tumor/Lung) of 3.58, a tissue to tissue ratio at 4 h (tumor/muscle, 0.1 ug/mouse, peptide dose 0.1 µg, read-out: Tumor/Muscle) of 33.7 and a tissue to tissue ratio at 4 h (tumor/muscle, 0.2 ug/mouse, peptide dose 0.2 µg, read-out: Tumor/Muscle) of 41.1. For the same compound, the tissue to tissue ratio at 4 h (tumor/muscle, 0.5 ug/mouse, peptide dose 0.5 µg, read-out: Tumor/Muscle) was 19.1, the tissue to tissue ratio at 4 h (tumor/muscle, 1 ug/mouse, peptide dose 1 µg, read-out: Tumor/Muscle) was 20.9 and the tissue to tissue ratio at 4 h (tumor/muscle, 2 ug/mouse, peptide dose 2 µg, read-out: Tumor/Muscle) was 12.2.

Source: publication PMC5811606, “Characterization of ^111In-labeled Glucose-Dependent Insulinotropic Polypeptide as a Radiotracer for Neuroendocrine Tumors” (Scientific Reports, 2018)
